Tested on: liver grafts
Type: in vivo
Conditions: content in ET-K+db-cAMP (2 mM) preservation solution, liver transplanted without final rinsing
Protocol: Eight-week-old inbred male Lewis rat (SLC) was housed in a chip-bedded cage at room temperature under a 12 hr light/dark cycle and given free access to a standard chow diet and water before operation.
Group I: UW solution group (n=8), Group II: New ET-K solution group (n=6), Group III: modified New ET-K solution group (n=8). The liver was preserved under cooling in each preservation solution for 24 hr, and then syngeneic liver transplantation was performed. Rats were randomly assigned to each group.
In the UW group, the blood in the donor liver portal vein blood vessel was first replaced with 10 ml of Ringer's solution, and then the blood vessel was perfused with 10 ml of UW solution. In the New ET-K group and the modified New ET-K group, the blood in the donor liver portal vein blood vessel was directly replaced with 20 ml of each preservation solution. In all groups, the perfusion with the preservation solution was performed at a pressure of 15 cmH2O. Then, liver grafts were preserved in respective preservation solutions at 4° C. for 24 hr. […]
In the same manner as in Example 1, syngenic liver transplantation was performed on 8-week-old inbred male Lewis rats (SLC), and the survival rate after transplantation of the liver preserved in preservation solutions containing various concentrations of nitroglycerin (NTG) was evaluated. […]

SMILES: O=[N+]([O-])OCC(CO[N+](=O)[O-])O[N+](=O)[O-] [nitroglycerin]
- nitroglycerin content at which toxicity due to nitroglycerin is hardly expressed: not more than 0.0044 mM

— patent publication US8512940B2, “Method for preserving liver in a solution comprising dibutyryl cAMP” (Otsuka Pharmaceutical Factory, Inc., priority 2005, dated 2013)
